{"source": "patent US20040087655A1", "about": "“6-Substituted indanoyl amino acid conjugates as mimics to the biological activity of coronatine” (priority 2001, published 2004)", "key": {"[1]": {"test_system": "touch-sensitive tendrils of Bryonia dioica", "assay": "Tendril coiling of Bryonia dioica shoots", "assay_type": "in vivo", "design": "key to tendril coiling at 500 μm concentration / tendril coiling 100 μm concentration / tendril coiling 10 μm concentration: −: no coiling; +: minor coiling; ++: Considerable coiling; +++: intense coiling", "details": "for tendril coiling 10 μm concentration / tendril coiling 100 μm concentration / tendril coiling at 500 μm concentration: followed over 20 h", "method": "Tendril coiling: To test the ability of the conjugates to induce tendril coiling, shoots of Bryonia dioica with the youngest, most well-developed tendrils were cut and immediately placed into vials with the test solution (2 ml) with the indanoyl conjugates (5-1000 μM) or coronatine (5-100 μM) and the extent of coiling was followed over a period of 20 h. The efficacy of the compounds as to their ability to induce tendril coiling was evaluated by the experimentator accordihg to the following scale: […]"}, "[2]": {"test_system": "Lima bean Phaseolus lunatus", "assay": "Induction of volatile emission in cut Lima bean plantlets (headspace collection, GC-MS)", "assay_type": "in vivo", "details": "for induction of C16 terpenoid TMTT emission / induction of methyl salicylate emission: volatile blend, FIG. 2", "method": "Plant material: Induction experiments were performed with plantlets of the Lima bean Phaseolus lunatus (Ferry Morse cv. Jackson Wonder Bush). Individual plants were grown from seed in a plastic pot (Ø=5.5 cm) at 23° C. and 80% humidity using daylight fluorescent tubes at ca. 270 μE m^2 st^−1 with a photophase of 14 h. Experiments were conducted with 12-16 day-old seedlings showing two fully developed leaves.\nInduction experiments: Plantlets of P. lunatus with two fully developed primary leaves were cut with razor blades and immediately transferred into Eppendorf vials containing a solution of the test-substance in tap water (100 μl). Solutions of the unsubstituted prior art compound indanoyl-L-isoleucine and of 6 -ethyl indanoyl-L-isoleucine methyl ester according to the invention were applied at 10, 100 and 1000 μM. Coronatne was used as a 100 μM aqueous solution. After uptake of the solution, the plantlets were placed into vials with tap water (5 ml) and were enclosed in small desiccators (750 ml) and maintained at 25° C. for 24 h. Control experiments were conducted under identical conditions by placing freshly cut plantlets into tap water. All experiments were carried out in triplicate.\nCollection and analysis of headspace volatiles: The volatiles emitted from the pre-treated plants were collected continuously on small charcoal traps (1 mg charcoal, CLSA-Filter, Le Ruisseau de Montbrun, F-09350 Daumazan sur Arize, France) over a period of 24 h using air circulation as described in J. Donath and W. Boland, Phytochemistry 1995, 39, 785-790.\nAfter desorption of the volatiles from the carbon trap with 40 μl of a solution of 1-bromodecane (internal standard, 50 μM) in dichloromethane. The extracts were directly analysed by GC/MS. GC-conditions: Fused-silica capillary (30 m×0.25 mm) coated with DB 5 (0.25 μm). Helium at […] served as carrier gas. Separation of the compounds was achieved under programmed conditions (50° C. for 2 min, then at 10° C. min^−1 to 200° C., finally at 35° C. min^−1 to 280° C.). MS: Finnigan GCQ; GC-interface at 265° C.; scan range 35-450 Da. Individual compounds (peak area) were quantified with respect to the peak area of the internal standard."}, "[3]": {"test_system": "internal level of salicylic acid in plants", "assay": "Internal level of salicylic acid in pre-treated plants", "assay_type": "in vivo", "details": "plants pre-treated with the compound"}, "[4]": {"details": "in particular in solution; contact with light; cited from earlier work"}}, "data": [{"compound": "CC[C@H](C)[C@H](NC(=O)c1cccc2c1CCC2=O)C(=O)OC", "note": "[1-oxo-indanoyl isoleucine methyl ester, 1-oxo-indanoyl-isoleucine methyl ester]", "values": [{"measurement": "tendril coiling 10 μm concentration", "setting": "[1]", "value": "−"}, {"measurement": "tendril coiling 100 μm concentration", "setting": "[1]", "value": "+"}, {"measurement": "tendril coiling at 500 μm concentration", "setting": "[1]", "value": "++"}, {"measurement": "concentration necessary to induce a coiling response", "setting": "[1]; tendrils of Bryonia dioica", "value": "about 1 mM"}]}, {"compound": "CCc1cc2c(c(C(=O)NC(C(=O)OC)C(C)CC)c1)CCC2=O", "note": "(stereo not drawn) [2-[(6-Ethyl-1-oxo-indane-4-carbonyl)-amino]-3-methyl-pentanoic acid methyl ester]", "values": [{"measurement": "up-regulation of biosynthesis of 4,8-dimethyl-nona-1,3,7-triene (DMNT)", "setting": "[2]; compared with the unsubstituted prior art compound", "value": "much more pronounced"}, {"measurement": "threshold concentration", "setting": "[2]; induction of volatiles", "value": "less than 10 μM"}, {"measurement": "induction of C16 terpenoid TMTT emission", "setting": "[2]", "value": "induced"}, {"measurement": "induction of methyl salicylate emission", "setting": "[2]", "value": "induced"}, {"measurement": "fold more active than the prior art compound unsubstituted at the 6-position", "setting": "[2]; volatile induction, relative to 1-oxo-indanoyl-isoleucine methyl ester", "value": "30-50 fold"}, {"measurement": "increase of salicylate (internal level of salicylic acid)", "setting": "[3]", "value": 8, "unit": "fold"}, {"measurement": "tendril coiling 10 μm concentration", "setting": "[1]", "value": "+"}, {"measurement": "tendril coiling 100 μm concentration", "setting": "[1]", "value": "+++"}, {"measurement": "tendril coiling at 500 μm concentration", "setting": "[1]", "value": "+++"}, {"measurement": "concentration inducing the coiling reaction (threshold concentration)", "setting": "[1]; tendrils of Bryonia dioica", "value": 20, "unit": "µM"}]}, {"compound": "6-azido-1-oxo-indanoyl isoleucine derivative", "values": [{"measurement": "stability", "setting": "[4]", "value": "unstable"}]}, {"compound": "CCC1CC1(NC(=O)C1=C[C@H](CC)C[C@@H]2C(=O)CC[C@H]12)C(=O)O", "note": "(stereo partly drawn) [coronatine]", "values": [{"measurement": "induction of C16 terpenoid TMTT emission", "setting": "[2]", "value": "induced"}, {"measurement": "induction of methyl salicylate emission", "setting": "[2]", "value": "induced"}, {"measurement": "tendril coiling 10 μm concentration", "setting": "[1]", "value": "++"}, {"measurement": "tendril coiling 100 μm concentration", "setting": "[1]", "value": "+++"}, {"measurement": "tendril coiling at 500 μm concentration", "setting": "[1]", "value": "+++"}, {"measurement": "concentration inducing the coiling reaction (threshold concentration)", "setting": "[1]; tendrils of Bryonia dioica", "value": "about 2 μM"}]}]}
